According to ChEMBL document CHEMBL5096239, “Two Binding Sites of SARS-CoV-2 Macrodomain 3 Probed by Oxaprozin and Meclomen” (J Med Chem, 2022):
The source made the active and inactive calls. The calls are words filed in the database; no cut-off is given here.

Experiments:
[1] = target: T1, Replicase polyprotein 1ab (Severe acute respiratory syndrome coronavirus 2, UniProt P0DTD1); test: Displacement of carboxyfluorescein-labelled bbc3-(dG)14 from SARS-CoV-2 Mac3 by fluorescence polarization analysis
[2] = target: Replicase polyprotein 1a (Severe acute respiratory syndrome-related coronavirus, UniProt P0C6U8); test: Binding affinity to 15N-labelled His6-tagged SARS-CoV Mac3 (527 to 652 residue) expressed in Escherichia coli Rosetta assessed as chemical shift perturbations by NMR HSQC spectral analysis
[3] = target: T1, Replicase polyprotein 1ab; test: Displacement of carboxyfluorescein-labelled p53-(dG)14 from SARS-CoV-2 Mac3 by fluorescence polarization analysis
[4] = target: Replicase polyprotein 1ab (Severe acute respiratory syndrome coronavirus 2) (UniProt P0DTD1); test: Binding affinity to 15N-labelled His6-tagged SARS-CoV-2 Mac3 (551 to 675 residues) expressed in Escherichia coli Rosetta assessed as chemical shift perturbations at binding site I (M630, Y634, V635, T636, and S660 residues) at ligand to protein molar ratio of 4:1 by NMR HSQC spectral analysis
[5] = target: T1, Replicase polyprotein 1ab; test: Binding affinity to 15N-labelled His6-tagged SARS-CoV-2 Mac3 (551 to 675 residues) expressed in Escherichia coli Rosetta assessed as chemical shift perturbations by NMR HSQC spectral analysis
[6] = target: Replicase polyprotein 1a (Severe acute respiratory syndrome-related coronavirus) (UniProt P0C6U8); test: Binding affinity to 15N-labelled His6-tagged SARS-CoV Mac3 (527 to 652 residue) expressed in Escherichia coli Rosetta assessed as chemical shift perturbations at binding site 1 (1556, T559, M606, T612, S636, and S637 residues) by NMR HSQC spectral analysis
[7] = target: Replicase polyprotein 1ab (Severe acute respiratory syndrome coronavirus 2) (UniProt P0DTD1); test: Binding affinity to 15N-labelled His6-tagged SARS-CoV-2 Mac3 (551 to 675 residues) expressed in Escherichia coli Rosetta assessed as chemical shift perturbations at binding site II (Q594, E595, S609, and M630 residues) at ligand to protein molar ratio of 4:1 by NMR HSQC spectral analysis
[8] = target: Replicase polyprotein 1a (Severe acute respiratory syndrome-related coronavirus) (UniProt P0C6U8); test: Binding affinity to 15N-labelled His6-tagged SARS-CoV Mac3 (527 to 652 residue) expressed in Escherichia coli Rosetta assessed as chemical shift perturbations at binding site 1 (C550, V553, 1556, and M606 residues) by NMR HSQC spectral analysis

Row | SMILES | Ki [1] [µM] | Kd [2] [µM] | Ki [3] [µM] | Activity [4] | Kd [5] [µM] | Activity [6] | Activity [7] | Activity [8]
1 | Cc1ccc(Cl)c(Nc2ccccc2C(=O)O)c1Cl [MECLOFENAMIC ACID] | 50 | 220 | 200 | Active | 900 | Active |  | 
2 | O=C(O)CCc1nc(-c2ccccc2)c(-c2ccccc2)o1 [OXAPROZIN] | 400 | 1000 | 900 |  | 1200 |  | Active | Active
